Assay results as given in patent US8969573B2, “Compounds for the inhibition of cellular proliferation” (President and Fellows of Harvard College, priority 2010, dated 2015).
Like-named read-outs stand apart in the source and are kept apart here.

Experiments:
CRL2813 human melanoma = assay: SRB assay (inhibition of cell proliferation); format: cell-based
Description: (§1) A sulfur rhodamine B (SRB) assay was used to determine the extent of inhibition of cell proliferation as a measure of the anti-cancer activity of compounds of the present disclosure. The reagent SRB binds to cellular proteins and absorbs light proportionally to the cellular protein content, which is a surrogate marker for the number of cells. According to aspects of the present disclosure, the assay can be used to with any cancer cell line including breast cancer cell lines, prostate cancer cell lines, melanoma cell lines, lung cancer cell lines or any other cell lines of the cancers described herein.
(§2) The following protocol was used to determine the growth characteristics of certain cell lines CRL2351 human breast cancer and CRL2813 human melanoma from which cell lines having doubling times less than 48 hours were selected for growth inhibition experiments. […] The following materials were used in addition to the cancel cell lines: complete (5% fetal calf serum added) tissue culture media, 96-well tissue culture plates, Sulforhodamine B dye (SRB, 0.57% w/w), […] (TCA, 10%), acetic acid glacial (1%) and 10 mM Tris base. The cells were prepared and plated. Cancer cells were grown to 80% confluency in an incubator. The cells were trypsinized per standard protocol or as needed for each cell line. The trypsin was neutralized, cells dissociated and counted. Each cell line was plated at a density of 500, 1000 and 3000 cells per well (six wells each) in five separate plates. The cells were then returned to the incubator. One plate was then removed each day starting day one after plating. 100 μl of 10% TCA was then added and the cells were fixed at 4° C. until all the cells were fixed. […] The cell growth for vehicle treatment is considered to be 100%. The optical density was then measured and plotted for each starting cell number and cell line against time. The percent cell growth inhibition was calculated as 100 minus the % of control cell growth. The % of control cell growth=((mean OD sample−Mean OD day 0)/(mean OD vehicle−Mean OD day 0))*100.

[1] = test system: CRL2351 human breast cancer; assay: SRB assay (inhibition of cell proliferation); format: cell-based; details: CRL2351 human breast cancer cells
Description: as §1, §2

eIF4E/eIF4G interaction = eIF4E/eIF4G interaction (Homo sapiens, UniProt P06730); assay: Fluorescent polarization assay; format: binding; details: FITC eIF4G peptide and recombinant eIF4E, ratio to Z (4EGI-1 = 1)
Description: The difference between the two measurement yields net polarization which is considered full signal of the assay (100% control). […] The activity of compound at each concentration is determined by comparing the fluorescent polarization (FP) signal in the presence of compound to the control (no compound) value. The percent inhibition is =100-((FP compound/FP control)*100).

[2] = CRL2813 human melanoma cells, summary table, read-out: IC50 [μM} CRL2813
[3] = summary table, read-out: IC50 [μM} CRL2351
[4] = Homo sapiens, summary table, read-out: IC50 [μM} CRL2351
[5] = Homo sapiens, CRL2813, CRL2813 human melanoma cells, Tables 1, 4, 5, read-out: SRB-IC50 (μM) 2813
[6] = Homo sapiens, CRL2813, CRL2813 human melanoma cells, summary table, read-out: IC50 [μM} CRL2813
[7] = Homo sapiens, Tables 1, 4, 5, read-out: SRB-IC50 (μM) 2351

eIF4E/eIF4G interaction, sequence (P06730 whole entry): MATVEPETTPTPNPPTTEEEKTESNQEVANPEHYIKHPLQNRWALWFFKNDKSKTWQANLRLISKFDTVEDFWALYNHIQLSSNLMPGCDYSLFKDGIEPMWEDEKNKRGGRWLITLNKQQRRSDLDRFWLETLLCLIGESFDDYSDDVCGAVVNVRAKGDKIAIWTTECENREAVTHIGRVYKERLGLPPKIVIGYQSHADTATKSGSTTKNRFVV

Compound | IC50 (CRL2813 human melanoma; [2]) [µM] | IC50 [1, 3] [µM] | Fp (ratio to Z) (eIF4E/eIF4G interaction) | IC50 [1, 4] [µM] | IC50 (CRL2813 human melanoma; [5]) [µM] | IC50 (CRL2813 human melanoma; [6]) [µM] | IC50 [1, 7] [µM] | IC50 (CRL2813 human melanoma; CRL2813 human melanoma cells, Tables 1, 4, 5, read-out: SRB-IC50 (μM) 2813) [µM]
COc1ccc(-c2nc(NN=C(Cc3ccccc3[N+](=O)[O-])C(=O)O)sc2-c2ccc(OC)cc2)cc1 [KY-323B] | 7 ± 2.6 | 20 ± 3.7 | 0.6 |  |  |  |  | 
O=C(O)/C(=N\Nc1nc(-c2ccc(Cl)c(Cl)c2)cs1)c1ccccc1[N+](=O)[O-] [KY-782-Z, (Z)-2-(2-(4-(3,4-dichlorophenyl)thiazol-2-yl)hydrazono)-2-(2-nitrophenyl)acetic acid] | 10 |  | 0.83 | 13 |  |  |  | 
[N-]=[N+]=NCCCOc1ccc(-c2csc(N/N=C(/Cc3ccccc3[N+](=O)[O-])C(=O)O)n2)cc1 [KH-167f] |  | > 20 | 1.04 |  | 18.6 | 18.6 |  | 
O=C(O)/C(Cc1ccc(C(F)(F)F)cc1)=N/Nc1nc(-c2ccc(Cl)c(Cl)c2)cs1 [KY-680] |  |  | 1.1 | 3 |  | 1 |  | 
COc1ccc(-c2nc(NN=C(Cc3ccccc3[N+](=O)[O-])C(=O)O)sc2-c2ccc(Cl)c(Cl)c2)cc1 [KY-371A11-B1] |  |  | 2.4 | 16 ± 4.9 |  | 3 ± 0.5 |  | 
O=C(O)/C(Cc1ccccc1)=N/Nc1nc(-c2ccc(Cl)c(Cl)c2)cs1 [KY-706bc] |  |  | 0.65 | 3.5 |  | 3 |  | 
[N-]=[N+]=NCCOc1cccc(-c2csc(N/N=C(/Cc3ccccc3[N+](=O)[O-])C(=O)O)n2)c1 [KH-174] |  |  | 0.82 | 1.2 | 11 | 11 | 1.3 | 
N.O=C(O)/C(Cn1cc(-c2ccccn2)nn1)=N/Nc1nc(-c2ccc(Cl)c(Cl)c2)cs1 [KY-767, ammonium (E)-2-(2-(4-(3,4-dichlorophenyl)thiazol-2-yl)hydrazono)-3-(4-(pyridin-2-yl)-1H-1,2,3-triazol-1-yl)propanoate] |  |  | 0.75 | 9 |  | 3.5 |  | 
CCOc1ccc(-c2nc(N/N=C(/Cc3ccccc3[N+](=O)[O-])C(=O)O)sc2-c2ccc(OC)cc2)cc1 [KY-576F] | 2 | 2 | 1 |  |  |  |  | 
COc1ccc(-c2nc(N/N=C(/Cc3ccccc3[N+](=O)[O-])C(=O)O)sc2-c2cccc(-n3cc(CO)nn3)c2)cc1 [KY-467S] |  |  | 0.85 | > 20 |  | > 20 |  | 
O=C(O)C(Cc1ccccc1[N+](=O)[O-])=NNc1nc(-c2ccccc2)c(-c2ccc(Cl)cc2)s1 [KY-349PR] |  |  | 1 | > 20 |  | > 20 |  | 
[N-]=[N+]=NCCCOc1ccc(-c2csc(N/N=C(/Cc3ccccc3[N+](=O)[O-])C(=O)O)n2)cc1 [KH-167s] | 12 | 2.7 | 0.91 |  |  |  | 2.8 | 11.9
COc1ccc(-c2nc(NN=C(Cc3ccccc3[N+](=O)[O-])C(=O)O)sc2-c2ccc(-n3cc(-c4cccc(O)c4)nn3)cc2)cc1 [KY-441] |  |  | 1.2 | > 20 |  | 15 ± 1.12 |  | 
COc1ccc(-c2nc(N/N=C(\Cc3ccccc3[N+](=O)[O-])C(=O)O)sc2-c2cccc(-n3cc(CO)nn3)c2)cc1 [KY-467F] |  |  | 0.7 | > 20 |  | > 20 |  | 
COC(=O)C1CN(c2nc(-c3ccc(Cl)c(Cl)c3)cs2)CCN1c1ccccc1[N+](=O)[O-] (stereo not shown) [RYF-273] |  |  | 0.55 | 0.54 |  | 3.5 |  | 
O=C(O)C(=NNc1nc(-c2ccc(Cl)c(Cl)c2)cs1)c1ccccc1[N+](=O)[O-] (stereo in doubt) [KY-782-E, (E)-2-(2-(4-(3,4-dichlorophenyl)thiazol-2-yl)hydrazono)-2-(2-nitrophenyl)acetic acid] | 2.2 | 10 | 0.94 |  |  |  |  | 
O=C(O)/C(Cc1c[nH]c2ccccc12)=N\Nc1nc(-c2ccc(Cl)c(Cl)c2)cs1 [KY-753, (Z/E)-2-(2-(4-(3,4-dichlorophenyl)thiazol-2-yl)hydrazono)-3-(1H-indol-3-yl)propanoic acid] |  |  | 0.85 | 13.5 |  | 7.5 |  | 
O=C(O)/C(Cc1ccccc1[N+](=O)[O-])=N/Nc1nc2c(s1)CCc1cc(Cl)c(Cl)cc1-2 [PC-159F, 2-(2-(7,8-dichloro-4,5-dihydronaphtho[1,2-d]thiazol-2-yl)hydrazono)-3-(2-nitrophenyl)propanoic acid] |  |  | 1.05 | < 1 |  | < 1 |  | 
O=C(O)/C(Cc1c(Br)cccc1[N+](=O)[O-])=N/Nc1nc(-c2ccc(Cl)c(Cl)c2)cs1 [RYF-339F] |  |  | 2.0 | < 0.54 |  | 1 |  | 
COc1ccc(-c2sc(N/N=C(/Cc3ccccc3[N+](=O)[O-])C(=O)O)nc2-c2ccc(Cl)c(Cl)c2)cc1 [KY-600] |  |  | 0.7 | 4.5 |  | 2.8 |  | 
COc1ccc(-c2sc(N/N=C(/Cc3ccccc3[N+](=O)[O-])C(=O)O)nc2-c2ccc(-c3ccccc3)cc2)cc1 [KY-577SF, 2-{[4-Biphenyl-4-yl-5-(4-methoxy-phenyl)-thiazol-2-yl]-hydrazono}-3-(2-nitro-phenyl)-propionic acid] | 0.1 | 0.7 | 1 |  |  |  |  | 
O=C(O)/C(Cc1ccccc1[N+](=O)[O-])=N/Nc1nc(-c2ccc(OC(F)(F)F)cc2)cs1 [KY-627S] |  |  | 0.65 | > 20 |  | > 20 |  | 
CCOc1ccc(-c2nc(N/N=C(/Cc3ccccc3[N+](=O)[O-])C(=O)O)sc2-c2ccc(OC)cc2)cc1 [KY-576S] | 12.8 | > 20 | 0.82 |  |  |  |  | 
COCc1cn(-c2ccc(-c3sc(NN=C(Cc4ccccc4[N+](=O)[O-])C(=O)O)nc3-c3ccc(OC)cc3)cc2)nn1 [KY-443A16-19] |  |  | 1 | > 20 |  | 14 ± 0.73 |  | 
Cc1ccc(-c2nc(NN=C(Cc3ccccc3[N+](=O)[O-])C(=O)O)sc2-c2ccc(Cl)cc2)cc1 [KY-351PR] |  |  | 1.1 | 2.5 |  | 3 |  | 
[N-]=[N+]=NCCCCOc1ccc(-c2csc(NN=C(Cc3ccccc3[N+](=O)[O-])C(=O)O)n2)cc1 [KH-113s] |  |  | 1.05 | 12 | 12.5 | 12.6 | 11 | 
COc1ccc(-c2nc(NN=C(Cc3ccccc3[N+](=O)[O-])C(=O)O)sc2-c2ccc(OC)c(OC)c2)cc1 [KY-341PRI] |  |  | 1.2 | 4 ± 0.51 |  | 5 ± 1.74 |  | 
COc1ccc(-c2cn(-c3ccc(-c4sc(NN=C(Cc5ccccc5[N+](=O)[O-])C(=O)O)nc4-c4ccc(OC)cc4)cc3)nn2)cc1 [KY-445] |  |  | 1 | > 20 |  | 13 ± 0.82 |  | 
